Measurements published in ChEMBL document CHEMBL5465560, “Selectivity Literature for EUbOPEN Chemogenomic Library” (2024).

Key:
[1] = target: Proto-oncogene tyrosine-protein kinase Src (Homo sapiens, UniProt P12931); details: at 10 µM
[2] = target: Calcium/calmodulin-dependent protein kinase type II subunit alpha (Homo sapiens, UniProt Q9UQM7); assay: Selectivity interaction (KinomeScan (DiscoverX)) EUB0000229b CAMK2A; details: at 10 µM
[3] = target: Cyclin-dependent kinase 7 (Homo sapiens, UniProt P50613); assay: Selectivity interaction (KinomeScan (DiscoverX)) EUB0001550a CDK7; details: at 1 µM
[4] = target: AP2-associated protein kinase 1 (Homo sapiens, UniProt Q2M2I8); assay: Selectivity interaction (KinomeScan (DiscoverX)) EUB0001868a AAK1; details: at 1 µM
[5] = target: Ribosomal protein S6 kinase alpha-1 (Homo sapiens, UniProt Q15418); assay: Selectivity interaction (Millipore kinase profiler) EUB0000124b RPS6KA1; details: at 10 µM
[6] = target: MAP kinase-interacting serine/threonine-protein kinase 1 (Homo sapiens) (UniProt Q9BUB5); assay: Selectivity interaction (Kinase panel (Invitrogen)) EUB0000639a MKNK1; details: at 200 nM
[7] = target: Tyrosine-protein kinase receptor Tie-1 (Homo sapiens) (UniProt P35590); assay: Selectivity interaction (KinomeScan (DiscoverX)) EUB0000607a TIE1; details: at 10 µM
[8] = target: T1, Dual specificity mitogen-activated protein kinase kinase 6 (Homo sapiens) (UniProt P52564); assay: Selectivity interaction (KinomeScan (DiscoverX)) EUB0001049a MAP2K6; details: at 1 µM
T1 sequence (whole entry): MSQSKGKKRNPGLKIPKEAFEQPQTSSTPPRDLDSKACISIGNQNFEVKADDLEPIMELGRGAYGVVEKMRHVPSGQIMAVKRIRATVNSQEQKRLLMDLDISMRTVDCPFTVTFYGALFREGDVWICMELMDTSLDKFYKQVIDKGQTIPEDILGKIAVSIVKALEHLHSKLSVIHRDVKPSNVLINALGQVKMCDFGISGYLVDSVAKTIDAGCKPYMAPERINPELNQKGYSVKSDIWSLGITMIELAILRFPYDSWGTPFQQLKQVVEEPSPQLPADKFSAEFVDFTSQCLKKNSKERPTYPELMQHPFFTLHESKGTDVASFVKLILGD

[9] = target: Vascular endothelial growth factor receptor 2 (Homo sapiens, UniProt P35968); assay: Selectivity interaction (Kinase panel (literature)) EUB0001199aCl KDR; details: at 1 µM
[10] = target: T2, Inhibitor of nuclear factor kappa-B kinase subunit beta (Homo sapiens) (UniProt O14920); assay: Selectivity interaction (KinomeScan (DiscoverX)) EUB0000618a IKBKB; details: at 10 µM
T2 sequence (whole entry): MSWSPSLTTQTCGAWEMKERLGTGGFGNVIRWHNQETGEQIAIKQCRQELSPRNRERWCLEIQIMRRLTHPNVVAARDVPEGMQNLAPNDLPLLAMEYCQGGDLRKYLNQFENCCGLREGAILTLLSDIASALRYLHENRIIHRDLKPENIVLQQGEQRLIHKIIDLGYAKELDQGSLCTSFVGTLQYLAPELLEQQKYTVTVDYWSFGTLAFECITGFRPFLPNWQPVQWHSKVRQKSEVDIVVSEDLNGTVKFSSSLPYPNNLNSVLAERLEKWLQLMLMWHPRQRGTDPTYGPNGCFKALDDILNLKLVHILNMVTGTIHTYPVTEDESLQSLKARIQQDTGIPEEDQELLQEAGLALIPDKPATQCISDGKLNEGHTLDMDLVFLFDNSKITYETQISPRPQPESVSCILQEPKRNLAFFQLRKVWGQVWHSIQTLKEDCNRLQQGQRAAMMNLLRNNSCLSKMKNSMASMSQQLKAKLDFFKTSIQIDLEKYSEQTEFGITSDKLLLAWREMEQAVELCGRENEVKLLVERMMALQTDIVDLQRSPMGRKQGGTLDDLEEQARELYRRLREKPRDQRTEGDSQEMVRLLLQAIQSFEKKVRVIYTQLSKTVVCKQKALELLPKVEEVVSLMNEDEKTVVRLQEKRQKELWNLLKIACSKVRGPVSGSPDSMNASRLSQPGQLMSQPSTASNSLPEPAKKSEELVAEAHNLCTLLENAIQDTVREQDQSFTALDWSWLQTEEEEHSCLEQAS

[11] = Selectivity interaction (Ambit KINOMEscan and KiNATiv profiling in Jurkat cells) EUB0000090b CDK2H; details: Selectivity number of off-targets 9; Selectivity number of targets 456; Source Knowledge https://www.nature.com/articles/nchembio.2166; at 1 µM
[12] = target: T3, Mitogen-activated protein kinase kinase kinase 2 (Homo sapiens) (UniProt Q9Y2U5); assay: Selectivity interaction (ActivX KiNativ screen (ex vivo kinase selectivity in human PBMCs)) EUB0001619a MAP3K2; format: cell-based; details: PBMC, at 1 µM
T3 sequence (whole entry): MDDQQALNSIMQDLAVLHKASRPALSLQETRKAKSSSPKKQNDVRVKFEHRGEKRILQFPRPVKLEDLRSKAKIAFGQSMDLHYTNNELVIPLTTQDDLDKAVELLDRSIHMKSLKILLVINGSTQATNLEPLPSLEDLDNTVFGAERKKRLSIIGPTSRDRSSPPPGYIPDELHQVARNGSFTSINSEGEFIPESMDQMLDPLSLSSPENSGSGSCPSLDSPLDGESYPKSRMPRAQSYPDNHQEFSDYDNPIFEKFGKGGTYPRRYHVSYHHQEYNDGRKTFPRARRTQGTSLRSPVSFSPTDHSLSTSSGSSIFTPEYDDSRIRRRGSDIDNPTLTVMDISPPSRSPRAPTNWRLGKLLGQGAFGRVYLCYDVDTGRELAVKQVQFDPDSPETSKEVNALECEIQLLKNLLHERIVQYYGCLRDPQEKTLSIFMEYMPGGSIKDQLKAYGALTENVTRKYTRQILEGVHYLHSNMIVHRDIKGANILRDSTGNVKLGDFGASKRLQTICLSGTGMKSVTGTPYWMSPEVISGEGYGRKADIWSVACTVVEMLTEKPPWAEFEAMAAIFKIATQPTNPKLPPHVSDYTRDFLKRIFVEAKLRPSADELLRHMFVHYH

Sequence of Cyclin-dependent kinase 7 (P50613 whole entry): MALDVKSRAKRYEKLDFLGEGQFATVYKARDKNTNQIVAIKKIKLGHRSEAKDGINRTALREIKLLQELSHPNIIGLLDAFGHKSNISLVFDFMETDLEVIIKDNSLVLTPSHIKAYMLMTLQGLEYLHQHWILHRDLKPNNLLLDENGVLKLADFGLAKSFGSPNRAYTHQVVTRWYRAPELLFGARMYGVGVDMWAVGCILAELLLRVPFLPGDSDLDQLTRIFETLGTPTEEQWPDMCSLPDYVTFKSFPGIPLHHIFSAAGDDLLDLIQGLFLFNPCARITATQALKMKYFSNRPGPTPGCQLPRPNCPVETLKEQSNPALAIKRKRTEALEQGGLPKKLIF
Sequence of Vascular endothelial growth factor receptor 2 (P35968 whole entry): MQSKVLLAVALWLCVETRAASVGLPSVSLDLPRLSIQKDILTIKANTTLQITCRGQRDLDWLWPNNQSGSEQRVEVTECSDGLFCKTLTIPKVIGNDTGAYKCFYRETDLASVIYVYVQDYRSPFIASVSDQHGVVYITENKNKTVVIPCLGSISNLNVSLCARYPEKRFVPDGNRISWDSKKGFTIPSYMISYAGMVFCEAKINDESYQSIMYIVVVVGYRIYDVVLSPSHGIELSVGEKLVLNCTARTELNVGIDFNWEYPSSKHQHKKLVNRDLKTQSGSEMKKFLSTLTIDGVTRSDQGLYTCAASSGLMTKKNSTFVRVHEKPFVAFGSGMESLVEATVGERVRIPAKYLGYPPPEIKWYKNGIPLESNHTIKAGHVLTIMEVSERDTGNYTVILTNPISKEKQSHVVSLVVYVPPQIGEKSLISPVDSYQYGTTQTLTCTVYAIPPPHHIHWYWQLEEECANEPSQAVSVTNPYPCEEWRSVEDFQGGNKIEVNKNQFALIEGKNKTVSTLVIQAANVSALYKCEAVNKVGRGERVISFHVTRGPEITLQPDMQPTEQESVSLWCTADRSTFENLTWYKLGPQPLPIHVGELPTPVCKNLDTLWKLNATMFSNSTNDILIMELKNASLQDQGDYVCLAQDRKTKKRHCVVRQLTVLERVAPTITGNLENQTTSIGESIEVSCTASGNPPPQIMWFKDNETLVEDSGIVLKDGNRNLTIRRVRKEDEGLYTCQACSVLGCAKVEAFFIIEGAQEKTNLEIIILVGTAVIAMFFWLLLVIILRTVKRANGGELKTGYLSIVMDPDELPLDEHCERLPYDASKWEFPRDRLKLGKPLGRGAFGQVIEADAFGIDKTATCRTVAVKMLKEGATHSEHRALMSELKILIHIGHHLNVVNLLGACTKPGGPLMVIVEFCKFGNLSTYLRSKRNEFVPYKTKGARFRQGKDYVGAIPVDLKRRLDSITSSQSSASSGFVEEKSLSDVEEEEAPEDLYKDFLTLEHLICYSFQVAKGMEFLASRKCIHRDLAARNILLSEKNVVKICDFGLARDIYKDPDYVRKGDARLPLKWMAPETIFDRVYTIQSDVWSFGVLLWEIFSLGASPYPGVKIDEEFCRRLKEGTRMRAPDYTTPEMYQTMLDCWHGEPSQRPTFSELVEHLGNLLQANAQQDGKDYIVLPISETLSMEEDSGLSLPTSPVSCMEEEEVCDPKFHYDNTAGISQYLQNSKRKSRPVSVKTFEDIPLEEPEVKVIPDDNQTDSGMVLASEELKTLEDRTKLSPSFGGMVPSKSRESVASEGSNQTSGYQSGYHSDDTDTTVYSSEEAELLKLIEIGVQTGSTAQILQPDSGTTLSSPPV
Sequence of Tyrosine-protein kinase receptor Tie-1 (Homo sapiens) (P35590 whole entry): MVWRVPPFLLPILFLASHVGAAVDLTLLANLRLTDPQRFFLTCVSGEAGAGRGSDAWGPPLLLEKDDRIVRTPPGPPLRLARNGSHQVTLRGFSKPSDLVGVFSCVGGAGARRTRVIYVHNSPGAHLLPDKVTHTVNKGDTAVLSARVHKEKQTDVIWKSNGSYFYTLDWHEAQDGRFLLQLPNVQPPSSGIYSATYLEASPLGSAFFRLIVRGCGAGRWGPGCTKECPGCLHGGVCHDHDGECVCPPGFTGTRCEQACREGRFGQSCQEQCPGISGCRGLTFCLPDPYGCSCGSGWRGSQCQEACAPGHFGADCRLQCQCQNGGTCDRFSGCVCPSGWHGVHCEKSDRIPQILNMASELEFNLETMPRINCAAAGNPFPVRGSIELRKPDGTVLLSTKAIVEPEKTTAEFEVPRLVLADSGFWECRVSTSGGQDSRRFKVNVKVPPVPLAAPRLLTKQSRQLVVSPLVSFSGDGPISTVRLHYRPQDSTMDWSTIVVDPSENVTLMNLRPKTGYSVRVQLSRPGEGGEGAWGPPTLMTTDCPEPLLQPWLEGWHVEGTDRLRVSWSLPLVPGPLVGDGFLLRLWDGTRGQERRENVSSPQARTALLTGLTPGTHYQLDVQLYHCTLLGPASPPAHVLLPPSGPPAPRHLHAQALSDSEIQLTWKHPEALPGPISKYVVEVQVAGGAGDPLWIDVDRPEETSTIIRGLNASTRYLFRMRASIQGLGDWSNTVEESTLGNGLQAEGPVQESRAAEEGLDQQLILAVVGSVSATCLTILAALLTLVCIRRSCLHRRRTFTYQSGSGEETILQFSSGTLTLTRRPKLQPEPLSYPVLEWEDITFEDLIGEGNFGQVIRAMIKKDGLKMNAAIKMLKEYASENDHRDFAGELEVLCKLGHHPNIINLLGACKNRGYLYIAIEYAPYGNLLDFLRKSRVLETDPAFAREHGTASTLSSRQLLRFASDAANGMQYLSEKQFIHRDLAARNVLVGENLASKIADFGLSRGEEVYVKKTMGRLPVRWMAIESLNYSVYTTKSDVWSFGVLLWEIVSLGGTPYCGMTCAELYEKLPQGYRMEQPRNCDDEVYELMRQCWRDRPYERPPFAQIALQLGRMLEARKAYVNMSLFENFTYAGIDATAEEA
Sequence of MAP kinase-interacting serine/threonine-protein kinase 1 (Homo sapiens) (Q9BUB5 whole entry, looked up): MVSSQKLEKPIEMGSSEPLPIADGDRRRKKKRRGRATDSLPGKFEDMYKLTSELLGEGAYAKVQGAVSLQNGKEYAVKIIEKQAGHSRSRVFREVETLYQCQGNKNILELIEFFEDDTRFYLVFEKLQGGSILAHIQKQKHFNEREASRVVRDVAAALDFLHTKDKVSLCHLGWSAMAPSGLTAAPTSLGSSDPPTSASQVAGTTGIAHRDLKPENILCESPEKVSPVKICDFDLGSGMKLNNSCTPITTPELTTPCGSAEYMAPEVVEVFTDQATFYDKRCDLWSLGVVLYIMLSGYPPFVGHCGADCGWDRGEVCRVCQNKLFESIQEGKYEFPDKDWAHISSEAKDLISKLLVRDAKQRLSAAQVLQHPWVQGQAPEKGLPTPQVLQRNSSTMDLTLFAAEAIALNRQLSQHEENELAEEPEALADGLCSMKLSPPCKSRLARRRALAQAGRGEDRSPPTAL
Sequence of Calcium/calmodulin-dependent protein kinase type II subunit alpha (Q9UQM7 whole entry): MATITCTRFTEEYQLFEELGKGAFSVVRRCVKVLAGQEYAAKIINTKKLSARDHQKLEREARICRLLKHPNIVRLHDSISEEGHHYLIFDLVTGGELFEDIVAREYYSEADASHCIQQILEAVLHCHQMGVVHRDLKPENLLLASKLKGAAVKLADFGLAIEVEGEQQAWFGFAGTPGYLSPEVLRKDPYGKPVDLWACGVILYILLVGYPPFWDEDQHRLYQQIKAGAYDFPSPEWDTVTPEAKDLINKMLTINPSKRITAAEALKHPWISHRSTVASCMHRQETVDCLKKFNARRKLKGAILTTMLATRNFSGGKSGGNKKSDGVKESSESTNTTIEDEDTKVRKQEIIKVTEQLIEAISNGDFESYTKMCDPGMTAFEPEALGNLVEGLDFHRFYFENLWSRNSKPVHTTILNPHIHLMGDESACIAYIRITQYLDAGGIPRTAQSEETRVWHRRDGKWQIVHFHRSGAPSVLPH
Sequence of Ribosomal protein S6 kinase alpha-1 (Q15418 whole entry): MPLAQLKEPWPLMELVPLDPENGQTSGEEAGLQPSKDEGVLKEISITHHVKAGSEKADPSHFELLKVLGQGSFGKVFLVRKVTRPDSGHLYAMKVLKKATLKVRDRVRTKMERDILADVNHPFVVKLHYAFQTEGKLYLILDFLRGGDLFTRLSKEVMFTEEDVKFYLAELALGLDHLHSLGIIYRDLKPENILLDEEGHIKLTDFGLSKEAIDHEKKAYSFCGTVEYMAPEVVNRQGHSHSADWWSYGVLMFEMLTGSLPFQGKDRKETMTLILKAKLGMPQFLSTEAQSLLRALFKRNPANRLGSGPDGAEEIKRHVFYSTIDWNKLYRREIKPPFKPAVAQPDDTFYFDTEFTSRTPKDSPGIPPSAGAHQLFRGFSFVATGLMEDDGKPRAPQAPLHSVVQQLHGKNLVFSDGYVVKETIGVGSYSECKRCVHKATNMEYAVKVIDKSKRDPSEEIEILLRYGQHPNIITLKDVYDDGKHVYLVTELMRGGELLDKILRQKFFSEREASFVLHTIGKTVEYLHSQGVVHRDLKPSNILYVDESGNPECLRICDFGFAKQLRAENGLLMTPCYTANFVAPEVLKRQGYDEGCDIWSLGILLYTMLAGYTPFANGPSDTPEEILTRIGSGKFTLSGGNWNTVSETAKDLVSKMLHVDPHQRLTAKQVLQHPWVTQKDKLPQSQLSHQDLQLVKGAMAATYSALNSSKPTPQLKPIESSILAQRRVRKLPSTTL
Sequence of Proto-oncogene tyrosine-protein kinase Src (P12931 2-536 limits assumed): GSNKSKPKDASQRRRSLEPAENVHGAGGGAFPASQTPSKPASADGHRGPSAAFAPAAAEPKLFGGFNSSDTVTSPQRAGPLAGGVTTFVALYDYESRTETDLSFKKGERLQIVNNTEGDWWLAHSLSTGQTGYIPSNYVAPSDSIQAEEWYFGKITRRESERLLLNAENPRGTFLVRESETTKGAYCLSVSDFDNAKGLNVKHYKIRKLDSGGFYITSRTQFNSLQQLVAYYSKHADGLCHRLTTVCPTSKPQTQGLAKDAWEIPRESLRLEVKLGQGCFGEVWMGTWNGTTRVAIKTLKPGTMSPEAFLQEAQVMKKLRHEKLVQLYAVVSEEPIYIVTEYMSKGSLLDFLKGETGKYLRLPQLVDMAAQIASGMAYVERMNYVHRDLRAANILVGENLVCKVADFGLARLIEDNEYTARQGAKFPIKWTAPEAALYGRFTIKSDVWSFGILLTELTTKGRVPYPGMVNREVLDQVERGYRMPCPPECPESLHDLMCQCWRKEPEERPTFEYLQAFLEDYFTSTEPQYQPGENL

In the case of CCN(CC)CCCCNc1ncc2cc(-c3cc(OC)cc(OC)c3)c(NC(=O)NC(C)(C)C)nc2n1, the % of control [1] is reported as 100%.

COc1cc(N(C)c2ccnc3ccc(C(F)(F)F)cc23)cc(OC)c1OC gave a % binding [2] of 77%.

For CN(C)CC#Cc1ccc2[nH]c3c(c2c1)-c1nc(N)ncc1CCC3, the % of control [3] was 20%.

Cc1cc(-c2ccnc(Nc3cnn(C)c3)n2)ccc1CNC(=O)N1CC(OC(C)C)C1 gave a % of control [4] of 22%.

CC(=O)Nc1cccc(-n2c(=O)n(C3CC3)c(=O)c3c(Nc4ccc(I)cc4F)n(C)c(=O)c(C)c32)c1 showed a % of control [5] of 116%.

Molecule CC[C@@H]1[C@H](F)C(=O)N[C@@H]1COc1nccc2cc(C(N)=O)c(OC)cc12 [ZIMLOVISERTIB] has a % of inhibition [6] of 46.2%.

In the case of CNC(=O)Nc1ccc(-c2nc(N3CC4CCC(C3)O4)c3cnn(C4CCC5(CC4)OCCO5)c3n2)cc1, the % of control [7] is reported as 98%.

COc1cc(Nc2nc(C)cc(-c3cnn4nc(OC)ccc34)n2)cc(C(F)(F)F)c1 showed a % of control [8] of 100%.

Molecule CN1Cc2nccc(-c3cn(C)nc3-c3ccc(F)cc3)c2C1=O has a % of inhibition [9] of 8%.

Molecule O[C@H]1CC[C@H](Nc2ncc3nc(Nc4c(F)cc(F)cc4F)n([C@H]4CCOC4)c3n2)CC1 has a % of control [10] of 100%.

With CN(C)C/C=C/C(=O)Nc1ccc(C(=O)N2CCCC(Nc3ncc(Cl)c(-c4c[nH]c5ccccc45)n3)C2)cc1 (configuration not stated) the “% of control” value [11] was 100%.

Molecule N#Cc1cccc(-c2c[nH]c3ncnc(N4CCOCC4)c23)c1 has a % of inhibition [12] of 15%.
